The source of these data is ChEMBL document CHEMBL1795312, “Insights into the structural requirements of farnesyltransferase inhibitors as potential anti-tumor agents based on 3D-QSAR CoMFA and CoMSIA models” (Eur J Med Chem, 2008).

The experiment in a line: Inhibition of farnesyltransferase.

`N#Cc1ccc(COCc2cncn2Cc2ccc(C#N)nc2)c(-c2ccc3c(c2)OCO3)c1` gave a negative logarithm of the IC50 (pIC50) of 8.52.
With `N#Cc1ccc(OCc2cncn2Cc2ccc(C#N)c(-c3cccc4ccccc34)c2)nc1` the figure was 9.04; with `N#Cc1ccc(OCc2cncn2Cc2ccc(C#N)c(-c3cccc4ccccc34)c2)cc1`, 9.49.
As for `N#Cc1ccc(Cn2cncc2COCc2ccc(C#N)cc2-c2ccc3c(c2)OCO3)nc1`, the pIC50 is recorded as 8.32.
As to `N#Cc1ccc(Cn2cncc2COc2ccc(C#N)c(-c3cccc4ccccc34)c2)cc1`, the pIC50 is 9.42.

In general, pIC50 refers to the IC50 on a negative log10 scale, so that one unit is a factor of ten.
